Target: GTPase KRas [G12V]/RAF proto-oncogene serine/threonine-protein kinase (Homo sapiens, UniProt P01116, G12V)
Test: KRAS/RAF1 Binding Inhibition Assay
Experimental: The test compounds in 2% DMSO (final concentration) at various concentrations were then added to the reaction mixture and incubated for 60 minutes at 4° C.

Compound: CCc1c(F)ccc2cc(O)cc(-c3ncc4c(N5CCCNC(=O)C5)nc(OCC5(CN6CCC7(CC6)CC(CN6CCN(c8ccc9c(c8)CN([C@H]8CCC(=O)NC8=O)C9=O)CC6)C7)CC5)nc4c3F)c12 [US20250092039, Compound 93]
- IC50: ≤ 200 nM

Compound: CCc1c(F)ccc2cc(O)cc(-c3ncc4c(N5CCCNC(=O)C5)nc(OCC5(CN6CCC(CN7CCN(c8ccc9c(c8)CN([C@H]8CCC(=O)NC8=O)C9=O)CC7)CC6)CC5)nc4c3F)c12 [US20250092039, Compound 95]
- IC50: > 200 nM

From BindingDB's records for patent US20250092039 (Tiger Biotherapeutics, 2025)
